In ChEMBL document CHEMBL3860027, “α-Pyrones with Diverse Hydroxy Substitutions from Three Marine-Derived Nocardiopsis Strains” (2016):
In brackets after ≈: the same amount, converted by molar mass.

What was measured:
Micrococcus luteus = assay: Antibacterial activity against Micrococcus luteus SCSIO ML01 by broth microdilution method; format: functional
Bacillus subtilis = assay: Antibacterial activity against Bacillus subtilis SCSIO BS01 by broth microdilution method; format: functional

Structure (SMILES) | MIC (Micrococcus luteus) | MIC (Bacillus subtilis)
CCc1ccc([C@H](C)CC)oc1=O | 32 µg/mL (≈ 178 µM) | –
CCc1ccc(CC(C)(C)O)c(=O)o1 | 32 µg/mL (≈ 163 µM) | –
CCc1ccc(CC(C)C)c(=O)o1 | 32 µg/mL (≈ 178 µM) | 64 µg/mL (≈ 355 µM)
CC[C@@H](C)c1ccc(C)c(=O)o1 | – | 64 µg/mL (≈ 385 µM)
CC(C)Cc1ccc(C(C)O)oc1=O (racemic) | 16 µg/mL (≈ 81.5 µM) | –
